Test results published in patent publication US20230287044A1, “NOVEL ANTIBACTERIAL PEPTIDE AND USE THEREOF” (priority 2020, published 2023).
Converted amounts (≈) assume the structure as drawn. Square brackets hold non-standard residues; d marks the D form. Peptide text beside a SMILES is read from it.

Tests used:
[1] = system: MRPA (P. aeruginosa) CCARM 2180; format: cell-based, Pseudomonas aeruginosa; conditions: CCARM 2180, 18 h
Experimental: (§1) The minimum growth inhibitory concentrations of the antibacterial peptides of the present invention weremeasured, and the results are shown in Table 3 below.
(§2) Specifically, the strains were grown in CAMHB until the midlog phase, and then diluted with PBS buffer to 1× 10^6 cfu/ml to prepare the bacterial solution, and the antibacterial peptide prepared in Example 1above was diluted with CAMHB to 80 µM, 40 µM, 20 µM, 10 µM, 5 µM, 2.5 µM, 1.25 µM and 0.63 µM, and then the bacterial solution was treated with the same volume.
(§3) The results are the average value of three independent experiments.

[2] = system: VRE (E. faecalis) ATCC 51575; format: cell-based, Enterococcus faecalis; conditions: ATCC 51575, 18 h
Experimental: as §1, §2, §3

[3] = system: MRSA (S. aureus) KCCM 40510; format: cell-based, Staphylococcus aureus; conditions: KCCM 40510, 18 h
Experimental: as §1, §2, §3

Structure (SMILES) | MIC MRPA (P. aeruginosa) CCARM 2180 [1] | MIC VRE (E. faecalis) ATCC 51575 [2] | MIC MRSA (S. aureus) KCCM 40510 [3]
CC[C@@H](C)[C@@H](NC(=O)[C@@H](Cc1c[nH]c2ccccc12)NC(=O)[C@@H](CC(C)C)NC(=O)[C@@H](CC(C)C)NC(=O)[C@H](N)Cc1c[nH]c2ccccc12)C(=O)NCC(=O)N[C@H](CC(C)C)C(=O)N[C@H](CCCNC(=N)N)C(=O)N[C@H](CCCCN)C(=O)N[C@H](CCCCN)C(N)=O [KSH8, wllwiglrkk] (H-[dW][dL][dL][dW][dI]G[dL][dR][dK][dK]-NH2; N-terminus assumed) | 40 µM (≈ 52.5 µg/mL) |  | 
CC[C@@H](C)[C@@H](NC(=O)[C@@H](Cc1c[nH]c2ccccc12)NC(=O)[C@@H](CC(C)C)NC(=O)[C@H](N)CC(C)C)C(=O)N[C@H](C)C(=O)N[C@H](CC(C)C)C(=O)N[C@H](CCCCN)C(=O)N[C@H](CCCCN)C(=O)N[C@H](CCCCN)C(=O)N[C@H](CCCCN)C(N)=O [KSH12, llwialkkkk] (H-[dL][dL][dW][dI][dA][dL][dK][dK][dK][dK]-NH2; N-terminus assumed) | >40 µM |  | 
CC[C@@H](C)[C@@H](NC(=O)[C@@H](Cc1c[nH]c2ccccc12)NC(=O)[C@@H](CC(C)C)NC(=O)[C@H](N)CC(C)C)C(=O)NCC(=O)N[C@H](CC(C)C)C(=O)N[C@H](CCCNC(=N)N)C(=O)N[C@H](CCCCN)C(=O)N[C@H](CCCCN)C(=O)N[C@H](CCCNC(=N)N)C(N)=O [KSH13, llwiglrkkr] (H-[dL][dL][dW][dI]G[dL][dR][dK][dK][dR]-NH2; N-terminus assumed) | >40 µM | 40 µM (≈ 51.3 µg/mL) | 40 µM (≈ 51.3 µg/mL)
CC(C)C[C@@H](NC(=O)[C@H](N)Cc1c[nH]c2ccccc12)C(=O)N[C@@H](C(=O)N[C@H](Cc1c[nH]c2ccccc12)C(=O)N[C@H](CCCCN)C(=O)N[C@H](Cc1c[nH]c2ccccc12)C(=O)N[C@H](CCCNC(=N)N)C(=O)N[C@H](CCCNC(=N)N)C(=O)N[C@H](CCCNC(=N)N)C(N)=O)C(C)C [KSH37, wlvwkwrrr] (H-[dW][dL][dV][dW][dK][dW][dR][dR][dR]-NH2; N-terminus assumed) | 40 µM (≈ 55.4 µg/mL) | 5 µM (≈ 6.92 µg/mL) | 
CC(C)C[C@@H](NC(=O)[C@H](N)Cc1c[nH]c2ccccc12)C(=O)N[C@@H](C(=O)N[C@H](Cc1c[nH]c2ccccc12)C(=O)N[C@H](CO)C(=O)N[C@H](Cc1c[nH]c2ccccc12)C(=O)N[C@H](CCCNC(=N)N)C(=O)N[C@H](CCCNC(=N)N)C(=O)N[C@H](CCCNC(=N)N)C(N)=O)C(C)C [KSH39, wlvwswrrr] (H-[dW][dL][dV][dW][dS][dW][dR][dR][dR]-NH2; N-terminus assumed) | >40 µM |  | 
CC[C@@H](C)[C@@H](NC(=O)[C@@H](Cc1c[nH]c2ccccc12)NC(=O)[C@@H](CC(C)C)NC(=O)[C@H](N)Cc1c[nH]c2ccccc12)C(=O)N[C@H](Cc1c[nH]c2ccccc12)C(=O)N[C@H](CCCNC(=N)N)C(=O)N[C@H](CCCNC(=N)N)C(=O)N[C@H](CCCNC(=N)N)C(N)=O [KSH41, wlwiwrrr] (H-[dW][dL][dW][dI][dW][dR][dR][dR]-NH2; N-terminus assumed) |  |  | 2.5 µM (≈ 3.18 µg/mL)
CC[C@@H](C)[C@@H](NC(=O)[C@@H](Cc1c[nH]c2ccccc12)NC(=O)[C@@H](CCCNC(=N)N)NC(=O)[C@@H](CCCNC(=N)N)NC(=O)[C@H](N)CCCNC(=N)N)C(=O)N[C@H](Cc1c[nH]c2ccccc12)C(=O)N[C@@H](C(=O)N[C@@H](C(=O)N[C@H](Cc1c[nH]c2ccccc12)C(N)=O)[C@H](C)CC)[C@H](C)CC [KSH60, rrrwiwiiw] (H-[dR][dR][dR][dW][dI][dW][dI][dI][dW]-NH2; N-terminus assumed) |  | 0.63 µM (≈ 0.872 µg/mL) | 
CC[C@@H](C)[C@@H](NC(=O)[C@H](N)Cc1c[nH]c2ccccc12)C(=O)N[C@@H](C(=O)N[C@H](Cc1c[nH]c2ccccc12)C(=O)N[C@@H](C(=O)N[C@H](Cc1c[nH]c2ccccc12)C(=O)N[C@H](CCCNC(=N)N)C(=O)N[C@H](CCCNC(=N)N)C(=O)N[C@H](CCCNC(=N)N)C(N)=O)[C@H](C)CC)[C@H](C)CC [KSH61, wiiwiwrrr] (H-[dW][dI][dI][dW][dI][dW][dR][dR][dR]-NH2; N-terminus assumed) |  | 0.63 µM (≈ 0.872 µg/mL) | 
